Results on 26 compounds are retold here after patent US8680139B2 (Progenra, priority 2009, dated 2014).

A word on the EC50: it is the concentration needed to bring the measured effect to its halfway point.

Where only a bound is given, the exact number is not on record here.

The nature of series [1]: HCT-116 Cellular Cytotoxicity Assay. As to conditions: human, HCT-116 cells, pH 7.2.
Description: The purpose of this assay is to determine if any of the synthesized compounds are cytotoxic against HCT-116 cells, as measured by resazurin metabolism. Resazurin is metabolized only by living cells from a non-fluorescent molecule into Resorufin, a highly red fluorescent dye. […] The cells were cultured in an incubator at 37° C. in 5% CO2 and 95% humidified air. […] The final concentration DMSO was 0.5% (v/v) in all samples. The plates were returned to the incubator for 72 hours. Following 72 hours of test compound exposure, 10 μL of 0.2 mg/mL Resazurin (Sigma) in phosphate buffered saline was added to each well and the plate was returned to the incubator for 3-6 hours. Since living cells metabolize Resazurin, the fluorescence of the reduction product of Resazurin was measured using a microplate fluorometer with λex=531 nm and λem=590 nm filters. Resazurin dye in medium without cells was used to determine the background, which was subtracted from the data for all experimental wells.
A further series concerns the target T1, USP7 (Homo sapiens, UniProt Q93009).
T1 construct: full length human USP7 protein; made in house
Description: USP7, Ub-PLA2 assay. It is filed as biochemical. Conditions: for EC50: Ub-PLA2 / NBD C6-HPC fluorescence, 30 minute preincubation, read-out: EC50 for inhibition of USP7. The procedure, abridged:
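Activity read as fluorescence in a Ub-PLA2 format, with percent inhibition calculated within each plate against DMSO (uninhibited) and NEM (background) wells. Vehicle was 100% DMSO.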

T1 sequence (Q93009 whole entry): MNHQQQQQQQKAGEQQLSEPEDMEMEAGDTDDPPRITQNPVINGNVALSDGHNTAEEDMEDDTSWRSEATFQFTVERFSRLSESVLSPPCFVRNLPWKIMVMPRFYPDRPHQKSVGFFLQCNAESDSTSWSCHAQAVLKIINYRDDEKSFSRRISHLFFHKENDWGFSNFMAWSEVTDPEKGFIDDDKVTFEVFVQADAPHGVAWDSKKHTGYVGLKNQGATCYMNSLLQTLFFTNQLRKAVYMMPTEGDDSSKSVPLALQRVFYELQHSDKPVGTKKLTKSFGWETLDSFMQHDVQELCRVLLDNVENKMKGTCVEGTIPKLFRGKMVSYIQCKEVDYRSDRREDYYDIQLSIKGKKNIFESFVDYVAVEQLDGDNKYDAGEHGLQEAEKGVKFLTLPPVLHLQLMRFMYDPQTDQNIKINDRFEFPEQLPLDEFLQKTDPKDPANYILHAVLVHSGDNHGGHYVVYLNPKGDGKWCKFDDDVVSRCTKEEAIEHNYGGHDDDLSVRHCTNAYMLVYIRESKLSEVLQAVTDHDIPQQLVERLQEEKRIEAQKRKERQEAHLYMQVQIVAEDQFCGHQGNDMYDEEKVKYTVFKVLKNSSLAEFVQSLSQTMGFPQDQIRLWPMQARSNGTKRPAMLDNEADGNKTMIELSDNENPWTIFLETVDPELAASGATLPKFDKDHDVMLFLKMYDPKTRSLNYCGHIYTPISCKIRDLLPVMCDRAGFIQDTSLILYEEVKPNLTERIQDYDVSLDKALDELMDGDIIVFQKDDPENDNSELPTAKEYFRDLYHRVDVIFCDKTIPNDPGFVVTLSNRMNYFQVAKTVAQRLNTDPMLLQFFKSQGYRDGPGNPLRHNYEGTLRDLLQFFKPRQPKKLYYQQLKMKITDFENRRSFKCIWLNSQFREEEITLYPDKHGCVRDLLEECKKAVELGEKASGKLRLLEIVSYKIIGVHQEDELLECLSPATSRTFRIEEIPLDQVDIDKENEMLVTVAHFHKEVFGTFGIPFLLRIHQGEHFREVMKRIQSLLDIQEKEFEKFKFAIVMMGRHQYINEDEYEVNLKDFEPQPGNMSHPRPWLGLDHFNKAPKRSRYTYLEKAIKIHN

`CN(C)CCC(O)c1cc([N+](=O)[O-])c(Sc2ccc(Cl)cc2Cl)s1` (stereo not drawn) [Example 25, 1-[5-(2,4-dichlorophenyl)sulfanyl-4-nitro-2-thienyl]-3-dimethylamino-propan-1-ol] gave an EC50 at 72 h in series [1] of 15.2 µM. The EC50 on USP7 was 1 to 10 µM.
The compound `CN(C)CCCOc1ccc(NC(=O)c2cc([N+](=O)[O-])c(Sc3c(Cl)cncc3Cl)s2)cc1` [Example 193, 5-[(3,5-dichloro-4-pyridyl)sulfanyl]-N-[4-(3-dimethylaminopropoxy)phenyl]-4-nitro-thiophene-2-carboxamide] yielded an EC50 at 72 h in series [1] of 3.37 µM. Further, the “USP7 inhibition, result in words” value on USP7 (USP7, Ub-PLA2 assay) is recorded as “Particularly good results”. For the same compound, the EC50 at USP7 is at most 1 µM.
Compound `COc1cc(NC(=O)c2cc(C#N)c(Sc3c(Cl)cncc3Cl)s2)ccc1OCCCN(C)C` [Example 205, 4-cyano-5-((3,5-dichloropyridin-4-yl)thio)-N-(4-(3-(dimethylamino)propoxy)-3-methoxyphenyl)thiophene-2-carboxamide] returned an EC50 at 72 h in series [1] of 3.1 µM. The EC50 at USP7 was at most 1 µM.
Take `COC(=O)c1cc([N+](=O)[O-])c(Sc2c(F)cncc2F)s1` [Example 255, Methyl 5-((3,5-difluoropyridin-4-yl)thio)-4-nitrothiophene-2-carboxylate]: the EC50 at USP7 fell in the range of 1 to 10 µM.
Regarding `COc1cccc(CN(C)C(=O)c2cc([N+](=O)[O-])c(Sc3c(Cl)cncc3Cl)s2)c1` [Example 67, 5-((3,5-dichloropyridin-4-yl)thio)-N-(3-methoxybenzyl)-N-methyl-4-nitrothiophene-2-carboxamide], the EC50 on USP7 was in the range of 1 to 10 µM.
As for `CC(C)N1CCC(NC(=O)c2cc([N+](=O)[O-])c(Sc3c(Cl)cncc3Cl)s2)CC1` [Example 187, 5-((3,5-dichloropyridin-4-yl)thio)-N-(1-isopropylpiperidin-4-yl)-4-nitrothiophene-2-carboxamide], the EC50 on USP7 was at most 1 µM.
Same read-out and setting: the figure for `O=C(O)CNC(=O)c1cc([N+](=O)[O-])c(Sc2c(Cl)cncc2Cl)s1` [Example 210, 2-(5-((3,5-dichloropyridin-4-yl)thio)-4-nitrothiophene-2-carboxamido)acetic acid] is 1 to 10 µM; for `COC(=O)c1cc([N+](=O)[O-])c(Sc2nc3nc(C)cc(C)n3n2)s1` [Example 266, Methyl 5-((5,7-dimethyl-[1,2,4]triazolo[1,5-a]pyrimidin-2-yl)thio)-4-nitrothiophene-2-carboxylate] it is above 10 µM; for `CN1CCC(NC(=O)c2cc([N+](=O)[O-])c(Oc3c(Cl)cncc3Cl)s2)CC1` [Example 259, 5-((3,5-dichloropyridin-4-yl)oxy)-N-(1-methylpiperidin-4-yl)-4-nitrothiophene-2-carboxamide] it is above 10 µM.
On the same count and under the same terms, the figure for `O=C(NCCOc1ccccc1)c1cc([N+](=O)[O-])c(Sc2c(Cl)cncc2Cl)s1` [Example 54, 5-((3,5-dichloropyridin-4-yl)thio)-4-nitro-N-(2-phenoxyethyl)thiophene-2-carboxamide] is 1 to 10 µM; for `O=Cc1cc([N+](=O)[O-])c(Sc2ccc(Cl)cc2Cl)s1` [Example 32, 5-(2,4-dichlorophenylsulfanyl)-4-nitrothiophene-2-carbaldehyde] it is 1 to 10 µM.
On the same count and under the same terms, the result for `Cc1cnc(NC(=O)c2cc([N+](=O)[O-])c(Sc3c(Cl)cncc3Cl)s2)s1` [Example 89] reads 1 to 10 µM.
For `O=C(NCc1ccc(-c2ccccc2)cc1)c1cc([N+](=O)[O-])c(Sc2c(Cl)cncc2Cl)s1` [Example 63, N-([1,1′-biphenyl]-4-ylmethyl)-5-((3,5-dichloropyridin-4-yl)thio)-4-nitrothiophene-2-carboxamide], the EC50 on USP7 is 1 to 10 µM.
Same read-out and setting: the result for `CN1CCC(NC(=O)Nc2cc([N+](=O)[O-])c(Sc3c(Cl)cncc3Cl)s2)CC1` [Example 270, 1-(5-((3,5-dichloropyridin-4-yl)thio)-4-nitrothiophen-2-yl)-3-(1-methylpiperidin-4-yl)urea] reads 1 to 10 µM; that for `O=C(NCc1ccccc1)c1cc([N+](=O)[O-])c(Sc2c(Cl)cncc2Cl)s1` [Example 45, N-benzyl-5-[(3,5-dichloro-4-pyridyl)sulfanyl]-4-nitro-thiophene-2-carboxamide], 1 to 10 µM; that for `COc1cc(NC(=O)c2cc([N+](=O)[O-])c(Sc3c(Cl)cncc3Cl)s2)ccc1OCCCN(C)C` [Example 240, 5-((3,5-dichloropyridin-4-yl)thio)-N-(4-(3-(dimethylamino)propoxy)-3-methoxyphenyl)-4-nitrothiophene-2-carboxamide], at most 1 µM.
On the same count and under the same terms, the figure for `O=C(NCc1ccc(Cl)nc1)c1cc([N+](=O)[O-])c(Sc2c(Cl)cncc2Cl)s1` [Example 162, N-((6-chloropyridin-3-yl)methyl)-5-((3,5-dichloropyridin-4-yl)thio)-4-nitrothiophene-2-carboxamide] is at most 1 µM; for `O=C(NCc1ccc(F)cc1)c1cc([N+](=O)[O-])c(Sc2c(Cl)cncc2Cl)s1` [Example 107, 5-((3,5-dichloropyridin-4-yl)thio)-N-(4-fluorobenzyl)-4-nitrothiophene-2-carboxamide] it is at most 1 µM.
For the compound `O=C(NCCC(=O)N1CCCC1)c1cc([N+](=O)[O-])c(Sc2c(Cl)cncc2Cl)s1` [Example 268, 5-((3,5-dichloropyridin-4-yl)thio)-4-nitro-N-(3-oxo-3-(pyrrolidin-1-yl)propyl)thiophene-2-carboxamide], on USP7, the concentration for a half-maximal effect (EC50) fell in the range of 1 to 10 µM.
Same read-out and setting: the figure for `Cn1nccc1NC(=O)c1cc([N+](=O)[O-])c(Sc2c(Cl)cncc2Cl)s1` [Example 167, 5-((3,5-dichloropyridin-4-yl)thio)-N-(1-methyl-1H-pyrazol-5-yl)-4-nitrothiophene-2-carboxamide] is at most 1 µM; for `COc1ccccc1CNC(=O)c1cc([N+](=O)[O-])c(Sc2c(Cl)cncc2Cl)s1` [Example 51, 5-((3,5-dichloropyridin-4-yl)thio)-N-(2-methoxybenzyl)-4-nitrothiophene-2-carboxamide] it is 1 to 10 µM; for `O=C(NC1CCC(O)CC1)c1cc([N+](=O)[O-])c(Sc2c(Cl)cncc2Cl)s1` (stereo not drawn) [Example 77, 5-((3,5-dichloropyridin-4-yl)thio)-N-(4-hydroxycyclohexyl)-4-nitrothiophene-2-carboxamide] it is 1 to 10 µM.
Same read-out and setting: the result for `CN(C)CCC(NC(=O)c1cc([N+](=O)[O-])c(Sc2nc3ccccc3s2)s1)c1ccccc1` (stereo not drawn) [Example 254, 5-(benzo[d]thiazol-2-ylthio)-N-(3-(dimethylamino)-1-phenylpropyl)-4-nitrothiophene-2-carboxamide] reads 1 to 10 µM.
For the compound `CN(C)CCNC(=O)CNC(=O)c1cc([N+](=O)[O-])c(Sc2c(Cl)cncc2Cl)s1` [Example 217, 5-((3,5-dichloropyridin-4-yl)thio)-N-(2-((2-(dimethylamino)ethyl)amino)-2-oxoethyl)-4-nitrothiophene-2-carboxamide], the EC50 at USP7 was in the range of 1 to 10 µM.
The same measure, in the same setting: the figure for `CC(=O)c1cc([N+](=O)[O-])c(Sc2ccccc2C(F)(F)F)s1` [Example 4, 1-{4-Nitro-5-[2-(trifluoromethyl)phenylsulfanyl]-2-thienyl}ethanone] is 1 to 10 µM.
On to `O=C(NC1CC2CCC1C2)c1cc([N+](=O)[O-])c(Sc2c(Cl)cncc2Cl)s1` (stereo not drawn) [Example 177, N-(bicyclo[2.2.1]heptan-2-yl)-5-((3,5-dichloropyridin-4-yl)thio)-4-nitrothiophene-2-carboxamide], for which the EC50 on USP7 was at most 1 µM.
